Converted amounts (≈) assume the structure as drawn.
Columns and labels:
Trichophyton asteroides [1] = assay: Infection treatment test of guinea pigs infected by Trichophyton asteroides, observation with the naked eye; format: in vivo, Trichophyton asteroides; guinea pig; conditions: for Effect on flush / Effect on scale / Effect on thickening of the affected skin: guinea pig, 1% solution, topical, once a day for 8 days, naked eye
Experimental: (§1) An infection treatment test of guinea pigs infected by a strain of Trichophyton asteroides on their backs was carried out using the liquid preparation having formulation as shown in Table 6.
(§2) Hairs were pulled off from a white Hartly guinea pig (4 guinea pigs per group) at 4 areas of the back thereof (2 areas on each side, 4×6 cm) and a Trichophyton asteroides-floating solution (liquid Sabouraud's culture medium; number of living cells: 2×10^7 /ml) was infected with a brush in an amount of 0.5 ml per each area. After 2 days from the infection, 0.25 ml of a 1% solution of SF-2080A substance (see Table 6) was applied at one area on each side, once a day and continuously for 8 days.
(§3) The same procedure as above was carried out, except using a 1% solution of pyrrolnitrin and a 1% solution of clotrimazole. Guinea pigs so treated were compared with those to which no treatment was applied.

Trichophyton asteroides [2] = assay: Infection treatment test of guinea pigs infected by Trichophyton asteroides, infected organism cultivation positive ratio; format: in vivo, Trichophyton asteroides; guinea pig; conditions: for infected organism cultivation positive ratio: after 8 days treatment, 1% solution, guinea pig
Experimental: as §1, §2, §3
After treatment for 8 days, 3 skin pieces were collected from each affecte area and cultivated on a Sabouraud's agar plate for 7 days to observe the infected organism cultivation positive ratio.

[3] = tested on: Serratia marcescens No. 1; assay: MIC by agar dilution method, Serratia marcescens No. 1; format: cell-based; conditions: Serratia marcescens No. 1, agar dilution; read-out: Minimum Inhibitory Concentration
Text: (§4) The minimum inhibitory concentrations of the SF-2080A substance and SF-2080B substance against various microorganisms as measured by the agar dilution method are shown in Table 4 below.

Trichophyton asteroides [4] = assay: MIC by agar dilution method, Trichophyton asteroides; format: cell-based; conditions: read-out: Minimum Inhibitory Concentration
Text: as §4

[5] = tested on: Cryptococcus neoformans Cr-1; assay: MIC by agar dilution method, Cryptococcus neoformans Cr-1; format: cell-based; conditions: CR1; Cryptococcus neoformans Cr-1, agar dilution; read-out: Minimum Inhibitory Concentration
Text: as §4

[6] = tested on: Escherichia coli NIHJ JC-2; assay: MIC by agar dilution method, Escherichia coli NIHJ JC-2; format: cell-based; conditions: NIHJJC2; Escherichia coli NIHJ JC-2, agar dilution; read-out: Minimum Inhibitory Concentration
Text: as §4

[7] = tested on: Escherichia coli K-12 IAM 1264; assay: MIC by agar dilution method, Escherichia coli K-12 IAM 1264; format: cell-based; conditions: IAM1264; Escherichia coli K-12 IAM 1264, agar dilution; read-out: Minimum Inhibitory Concentration
Text: as §4

Salmonella typhi O-901-W = assay: MIC by agar dilution method, Salmonella typhi O-901-W; format: cell-based; conditions: Salmonella enterica, read-out: Minimum Inhibitory Concentration
[8] = tested on: Staphylococcus epidermidis ATCC 14990; assay: MIC by agar dilution method, Staphylococcus epidermidis ATCC 14990; format: cell-based; conditions: ATCC14990; Staphylococcus epidermidis ATCC 14990, agar dilution; read-out: Minimum Inhibitory Concentration
Text: as §4

[9] = tested on: Trichophyton interdigital; assay: MIC by agar dilution method, Trichophyton interdigital; format: cell-based; conditions: read-out: Minimum Inhibitory Concentration
Text: as §4

[10] = tested on: Staphylococcus aureus FDA 209P JC-1; assay: MIC by agar dilution method, Staphylococcus aureus FDA 209P JC-1; format: cell-based; conditions: FDA209P; Staphylococcus aureus FDA 209P JC-1, agar dilution; read-out: Minimum Inhibitory Concentration
Text: as §4

[11] = Acute toxicity by intraperitoneal administration in mice; conditions: mouse, in vivo, ip
Aspergillus fumigatus [12] = assay: MIC by agar dilution method, Aspergillus fumigatus; format: cell-based; conditions: read-out: Minimum Inhibitory Concentration
Text: as §4

[13] = tested on: Bacillus subtilis ATCC 6633; assay: MIC by agar dilution method, Bacillus subtilis ATCC 6633; format: cell-based; conditions: ATCC6633; Bacillus subtilis ATCC 6633, agar dilution; read-out: Minimum Inhibitory Concentration
Text: as §4

[14] = tested on: Shigella dysenteriae Shigae; assay: microbe, parasite or virus in culture; format: cell-based; conditions: read-out: Minimum Inhibitory Concentration
Solubility = format: physicochemical
Proteus vulgaris OX-19 = assay: MIC by agar dilution method, Proteus vulgaris OX-19; format: cell-based; conditions: OX19; Proteus vulgaris OX-19, agar dilution; read-out: Minimum Inhibitory Concentration
Text: as §4

Diaporthe citri = assay: MIC by agar dilution method, Diaporthe citri; format: cell-based; conditions: read-out: Minimum Inhibitory Concentration
Text: as §4

[15] = tested on: Klebsiella pneumoniae ATCC 27763; assay: MIC by agar dilution method, Klebsiella pneumoniae ATCC 27763; format: cell-based; conditions: ATCC27763; Klebsiella pneumoniae ATCC 27763, agar dilution; read-out: Minimum Inhibitory Concentration
Text: as §4

[16] = tested on: Staphylococcus aureus Smith; assay: MIC by agar dilution method, Staphylococcus aureus Smith; format: cell-based; conditions: read-out: Minimum Inhibitory Concentration
Text: as §4

various microorganisms = assay: Agar dilution method, various microorganisms (overall statement); format: cell-based; conditions: overall statement in words
Text: as §4

[17] = tested on: Pseudomonas aeruginosa IAM 1007; assay: MIC by agar dilution method, Pseudomonas aeruginosa IAM 1007; format: cell-based; conditions: IAM1007; Pseudomonas aeruginosa IAM 1007, agar dilution; read-out: Minimum Inhibitory Concentration
Text: as §4

Pyricularia oryzae = assay: microbe, parasite or virus in culture; format: cell-based; conditions: read-out: Minimum Inhibitory Concentration
Aspergillus fumigatus [18] = assay: MIC by plate dilution method, Aspergillus fumigatus; format: cell-based; conditions: read-out: minimum growth inhibitory concentration (MIC)
Text: (§5) The minimum growth inhibitory concentration (MIC) against each test strain according to the plate dilution method is shown below: […]

fungi = assay: Plate dilution method, fungi (overall statement); format: cell-based; conditions: overall statement in words
Text: as §5

Trichophyton asteroides [19] = assay: MIC by plate dilution method, Trichophyton asteroides; format: cell-based; conditions: read-out: minimum growth inhibitory concentration (MIC)
Text: as §5

[20] = tested on: Cryptococcus neoformans Cr-1; assay: MIC by plate dilution method, Cryptococcus neoformans CR-1; format: cell-based; conditions: CR1; Cryptococcus neoformans CR-1, plate dilution; read-out: minimum growth inhibitory concentration (MIC)
Text: as §5

[21] = tested on: Trichophyton interdigitale; assay: MIC by plate dilution method, Trichophyton interdigitale; format: cell-based; conditions: read-out: minimum growth inhibitory concentration (MIC)
Text: as §5

Candida albicans C-A-24 = assay: MIC by plate dilution method, Candida albicans C-A-24; format: cell-based; conditions: CA24; Candida albicans C-A-24, plate dilution; read-out: minimum growth inhibitory concentration (MIC)
Text: as §5

[22] = as compared with pyrrolnitrin and clotrimazole, statement in words

Structure (SMILES)	Effect on flush (Trichophyton asteroides [1])	Effect on scale (Trichophyton asteroides [1])	Effect on thickening of the affected skin (Trichophyton asteroides [1])	infected organism cultivation positive ratio (Trichophyton asteroides [2]; day of cultivation 3)	infected organism cultivation positive ratio (Trichophyton asteroides [2]; day of cultivation 5)	infected organism cultivation positive ratio (Trichophyton asteroides [2]; day of cultivation 7)	MIC [3]	MIC (Trichophyton asteroides [4])	MIC [5]	MIC [6]	MIC [7]	MIC (Salmonella typhi O-901-W)	MIC [8]	MIC [9]	MIC [10]	MIC (Aspergillus fumigatus [12])	MIC [13]	MIC [14]	Solubility in acetone (Solubility)	Solubility in chloroform (Solubility)	other results
Clc1ccccc1C(c1ccccc1)(c1ccccc1)n1ccnc1 [clotrimazole]	Ineffective	Effective	Effective	75%	96%	96%	–	–	–	–	–	–	–	–	–	–	–	–	–	–	–
O=[N+]([O-])c1c(Cc2cc(Cl)cc(Cl)c2O)[nH]c(Cl)c1Cl [SF-2080B substance]	–	–	–	–	–	–	> 100 µg/mL	> 100 µg/mL	> 100 µg/mL	100 µg/mL (≈ 281 µM)	100 µg/mL (≈ 281 µM)	50 µg/mL (≈ 140 µM)	0.1 µg/mL (≈ 0.281 µM)	100 µg/mL (≈ 281 µM)	0.2 µg/mL (≈ 0.562 µM)	> 100 µg/mL	0.1 µg/mL (≈ 0.281 µM)	50 µg/mL (≈ 140 µM)	easily soluble	soluble	acute toxicity, fraction of mice that survived ([11]; 100 mg/kg): 2/3; Solubility in methanol (Solubility): easily soluble; MIC (Proteus vulgaris OX-19): 0.78 µg/mL (≈ 2.19 µM); MIC (Diaporthe citri): 0.4 µg/mL (≈ 1.12 µM); MIC [15]: > 100 µg/mL; MIC [16]: 0.2 µg/mL (≈ 0.562 µM); antibacterial/antimicrobial effectiveness against the strains tested (various microorganisms): very effective against a limited number of strains, but it is less active or lacks toward the others; MIC [17]: > 100 µg/mL; MIC (Pyricularia oryzae): 3.13 µg/mL (≈ 8.79 µM)
O=[N+]([O-])c1c[nH]c(Cl)c1Cl [SF-2080A substance]	–	–	–	25%	37%	37%	6.25 µg/mL (≈ 34.5 µM)	3.12 µg/mL (≈ 17.2 µM)	25 µg/mL (≈ 138 µM)	6.25 µg/mL (≈ 34.5 µM)	6.25 µg/mL (≈ 34.5 µM)	6.25 µg/mL (≈ 34.5 µM)	3.13 µg/mL (≈ 17.3 µM)	1.56 µg/mL (≈ 8.62 µM)	1.56 µg/mL (≈ 8.62 µM)	25 µg/mL (≈ 138 µM)	1.56 µg/mL (≈ 8.62 µM)	3.13 µg/mL (≈ 17.3 µM)	easily soluble	soluble	MIC (Aspergillus fumigatus [18]): 25 µg/mL (≈ 138 µM); therapeutic effect, observation with the naked eye (Trichophyton asteroides [1]; [22]): excellent therapeutic effects; treatment effect in thickening of the affected skin, flush, and scale (Trichophyton asteroides [1]; compared with 1% pyrrolnitrin and 1% clotrimazole, statement in words): best treatment effect; acute toxicity, survival ([11]; 10 mg/kg): all mice survived; acute toxicity, mortality ([11]; 30 mg/kg): all mice died; inhibition of growth of fungi (fungi): inhibits the growth of fungi; Solubility in methanol (Solubility): easily soluble; MIC (Trichophyton asteroides [19]): 3.12 µg/mL (≈ 17.2 µM); MIC (Proteus vulgaris OX-19): 6.25 µg/mL (≈ 34.5 µM); MIC [20]: 25 µg/mL (≈ 138 µM); MIC (Diaporthe citri): 0.8 µg/mL (≈ 4.42 µM); MIC [15]: 6.25 µg/mL (≈ 34.5 µM); MIC [16]: 3.13 µg/mL (≈ 17.3 µM); therapeutic effect, cultivation positive ratio (Trichophyton asteroides [2]; [22]): excellent therapeutic effects; decrease in the cultivation positive ratio (Trichophyton asteroides [2]; compared with pyrrolnitrin-dosed, clotrimazole-dosed and no treatment groups, in words): evident decrease; antibacterial/antimicrobial effectiveness against the strains tested (various microorganisms): generally effective against all strains of bacteria tested; MIC [17]: 6.25 µg/mL (≈ 34.5 µM); MIC [21]: 1.56 µg/mL (≈ 8.62 µM); MIC (Pyricularia oryzae): 0.8 µg/mL (≈ 4.42 µM); MIC (Candida albicans C-A-24): 100 µg/mL (≈ 553 µM)
O=[N+]([O-])c1c(Cl)cccc1-c1c[nH]cc1Cl [pyrrolnitrin]	Ineffective	Ineffective	Effective	62%	87%	87%	–	–	–	–	–	–	–	–	–	–	–	–	–	–	–
